According to patent US20020028472A1, “Methods for identifying inhibitors of the anaphase promoting complex” (priority 2000, published 2002):

Molecular target: T1, APC11 fused to Maltose Binding Protein (MBP-APC11) (Homo sapiens, UniProt Q9NYG5)
T1 construct: obtained by inserting the APC11 coding region into the commercially available vector pMAL, New England Biolabs; made in house; host or cells: E. coli, grown with 1 mM ZnCl2; purified on amylose resin
Test: FRET assay of APC11-mediated formation of multiubiquitin chains
Assay type: biochemical
Conditions: DTT titrated 0 to 30 mM; 60 min at 37° C.; E1 UBA1, E2 HIS-UBCH5b; FRET europium/allophycocyanin

T1 sequence (Q9NYG5 whole entry, the tested form may be a part): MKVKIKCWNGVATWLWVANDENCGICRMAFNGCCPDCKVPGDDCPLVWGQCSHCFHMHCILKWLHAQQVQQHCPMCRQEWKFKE

O[C@H](CS)[C@H](O)CS (racemic) [DTT, dithiothreitol]
inhibition of the APC11-mediated formation of multiubiquitin chains: inhibition
